According to patent publication US12495798B2, “Nicotinamide compound and herbicidal composition comprising compound” (KOREA RESEARCH INSTITUTE OF CHEMICAL TECHNOLOGY, priority 2019, dated 2025):

Columns and labels:
Format in all cases: in vivo
barnyard grass [1] = experiment: Herbicidal activity test against upland field weeds (foliar treatment test); design: key to Foliar treatment herbicidal activity, barnyard grass: 0 (no control); 100 (complete control); details: 50 g ai/ha, scale 0-100; for pest or weed control at 50 g/ha: Echinochloa crus-galli
Method in brief: (§1)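 Visual 0–100 control ratings relative to untreated plants, taken 14 (or 21) days after spraying foliage at 50 or 75 g a.i./ha. Spray solution: 50% acetone with 0.1% Tween-20; plants kept in greenhouse at 30±5 °C, 14 h light/10 h dark.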

quack grass = experiment: as above; design: key to Foliar treatment herbicidal activity, quack grass: 0 (no control); 100 (complete control); details: 50 g ai/ha, scale 0-100
Method in brief: as §1

fall panicum = experiment: as above; details: Panicum dichotomiflorum, 50 g ai/ha, scale 0-100
Method in brief: as §1

cocklebur [2] = experiment: as above; design: key to Foliar treatment herbicidal activity, Cocklebur: 0 (no control); 100 (complete control); details: 50 g ai/ha, scale 0-100; for pest or weed control at 50 g/ha: Xanthium strumarium
Method in brief: as §1

barnyard grass [3] = experiment: Herbicidal activity test against upland field weeds (soil treatment test); design: key to Soil treatment herbicidal activity, barnyard grass: 0 (no control); 100 (complete control); details: 50 g ai/ha, scale 0 (no control) to 100 (complete control)
Method in brief: (§2)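 Weed control scored visually on a 0 (none) to 100 (complete) scale versus untreated pots at 14 or 21 days in greenhouse (30±5 °C, 14 h light). Test compounds, 50 or 75 g a.i./ha in 50% acetone/0.1% Tween-20, hand-sprayed onto soil one day post-sowing.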

crabgrass = experiment: as above; design: key to Soil treatment herbicidal activity, Crabgrass: 0 (no control); 100 (complete control); details: 50 g ai/ha, scale 0 (no control) to 100 (complete control); for pest or weed control at 50 g/ha: Digitaria sanguinalis
Method in brief: as §2

indian jointvetch = experiment: as above; design: key to Soil treatment herbicidal activity, Indian jointvetch: 0 (no control); 100 (complete control); details: 50 g ai/ha, scale 0 (no control) to 100 (complete control)
Method in brief: as §2

cocklebur [4] = experiment: as above; design: key to Soil treatment herbicidal activity, Cocklebur: 0 (no control); 100 (complete control); details: 50 g ai/ha, scale 0 (no control) to 100 (complete control)
Method in brief: as §2

bindweed = experiment: as above; design: key to Soil treatment herbicidal activity, Bindweed: 0 (no control); 100 (complete control); details: 50 g ai/ha, scale 0 (no control) to 100 (complete control)
Method in brief: as §2

corn = experiment: Phytotoxicity test for field crops (soil treatment test); design: key: 0 (no harm); 9 (complete withered)
Method in brief: (§3)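 Pre-emergence soil spray one day after sowing in sterilized horticultural soil (pH 6.1, organic matter 1.0%), test compounds diluted in 33% acetone/0.1% Tween-20 to 19˜300 g a.i./ha. Greenhouse at 30±5° C, 14/10 h light/dark. Phytotoxicity scored visually 10 and 20 days after treatment on a 0 (no harm) to 9 (complete withered) scale versus untreated control.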

cotton = experiment: as above; design: key: 0 (no harm); 9 (complete withered)
Method in brief: as §3

rice = experiment: as above; design: key: 0 (no harm); 9 (complete withered)
Method in brief: as §3

soybean = experiment: as above; design: key: 0 (no harm); 9 (complete withered)
Method in brief: as §3

wheat = experiment: as above; design: key: 0 (no harm); 9 (complete withered)
Method in brief: as §3

[5] = 50 g ai/ha, Corn (10 days after treatment)
[6] = 50 g ai/ha, Corn (20 days after treatment)
[7] = 100 g ai/ha, Corn (10 days after treatment)
[8] = 100 g ai/ha, Corn (20 days after treatment)
[9] = 50 g ai/ha, Cotton (10 days after treatment)
[10] = 50 g ai/ha, Cotton (20 days after treatment)
[11] = 100 g ai/ha, Cotton (10 days after treatment)
[12] = 100 g ai/ha, Cotton (20 days after treatment)
[13] = 50 g ai/ha, Rice (10 days after treatment)
[14] = 50 g ai/ha, Rice (20 days after treatment)
[15] = 100 g ai/ha, Rice (10 days after treatment)
[16] = 100 g ai/ha, Rice (20 days after treatment)
[17] = 50 g ai/ha, Soybean (10 days after treatment)
[18] = 50 g ai/ha, Soybean (20 days after treatment)
[19] = 100 g ai/ha, Soybean (20 days after treatment)
[20] = 50 g ai/ha, Wheat (10 days after treatment)
[21] = 50 g ai/ha, Wheat (20 days after treatment)
[22] = 100 g ai/ha, Wheat (10 days after treatment)
[23] = 100 g ai/ha, Wheat (20 days after treatment)

For `Cn1nnnc1COc1nc(C(F)(F)F)ccc1C(=S)Nc1nnnn1C` [Compound No. 1-43, N-(1-methyl-1H-tetrazol-5-yl)-2-((1-methyl-1H-tetrazol-5-yl)methoxy)-6-(trifluoromethyl)pyridin-3-carbothioamide], which pest or weed control at 50 g/ha (barnyard grass [1]) is on record?
Its pest or weed control at 50 g/ha is 95%.

What about the pest or weed control at 50 g/ha (quack grass) of the same molecule?
The pest or weed control at 50 g/ha was 30%.

And the pest or weed control at 50 g/ha (fall panicum)?
The pest or weed control at 50 g/ha was 95%.

What about the pest or weed control at 50 g/ha (cocklebur [2]) of the same molecule?
The pest or weed control at 50 g/ha was 90%.

And the “Soil treatment herbicidal activity, barnyard grass” value (barnyard grass [3])?
The value was 0.

What about the pest or weed control at 50 g/ha (crabgrass) of the same molecule?
Its pest or weed control at 50 g/ha is 20%.

And the “Soil treatment herbicidal activity, Indian jointvetch” value (indian jointvetch)?
Its value is 0.

And the “Soil treatment herbicidal activity, Cocklebur” value (cocklebur [4])?
The value was 0.

What about the “Soil treatment herbicidal activity, Bindweed” value (bindweed) of the same molecule?
Its value is 0.

And the “Soil treatment phytotoxicity, Corn” value (corn; [5])?
The value was 0.

And the “Soil treatment phytotoxicity, Corn” value (corn; [6])?
The value was 0.

And the “Soil treatment phytotoxicity, Corn” value (corn; [7])?
The value was 1.

What about the “Soil treatment phytotoxicity, Corn” value (corn; [8]) of the same molecule?
The value was 0.

What about the “Soil treatment phytotoxicity, Cotton” value (cotton; [9]) of the same molecule?
Its value is 0.

And the “Soil treatment phytotoxicity, Cotton” value (cotton; [10])?
The value was 1.

What about the “Soil treatment phytotoxicity, Cotton” value (cotton; [11]) of the same molecule?
The value was 1.

And the “Soil treatment phytotoxicity, Cotton” value (cotton; [12])?
The value was 2.

And the “Soil treatment phytotoxicity, Rice” value (rice; [13])?
The value was 5.

And the “Soil treatment phytotoxicity, Rice” value (rice; [14])?
The value was 5.

And the “Soil treatment phytotoxicity, Rice” value (rice; [15])?
The value was 7.

And the “Soil treatment phytotoxicity, Rice” value (rice; [16])?
Its value is 9.

And the “Soil treatment phytotoxicity, Soybean” value (soybean; [17])?
The value was 0.

What about the “Soil treatment phytotoxicity, Soybean” value (soybean; [18]) of the same molecule?
Its value is 0.

What about the “Soil treatment phytotoxicity, Soybean” value (soybean; 100 g ai/ha, Soybean (10 days after treatment)) of the same molecule?
Its value is 0.

What about the “Soil treatment phytotoxicity, Soybean” value (soybean; [19]) of the same molecule?
The value was 0.

And the “Soil treatment phytotoxicity, Wheat” value (wheat; [20])?
The value was 0.

What about the “Soil treatment phytotoxicity, Wheat” value (wheat; [21]) of the same molecule?
The value was 0.

And the “Soil treatment phytotoxicity, Wheat” value (wheat; [22])?
Its value is 3.

What about the “Soil treatment phytotoxicity, Wheat” value (wheat; [23]) of the same molecule?
Its value is 3.

`Cn1nnc(CSCc2nc(C(F)(F)F)ccc2C(=O)N(C(=O)c2ccccc2)c2nnnn2C)n1` [Compound No. 2-109, N-benzoyl-N-(1-methyl-1H-tetrazol-5-yl)-2-((((2-methyl-2H-tetrazol-5-yl)methyl)thio)methyl)-6-(trifluoromethyl)nicotinamide] was tested. Which “Foliar treatment herbicidal activity, barnyard grass” value (barnyard grass [1]) did it give?
Its value is 100.

What about the “Foliar treatment herbicidal activity, quack grass” value (quack grass) of the same molecule?
The value was 0.

And the pest or weed control at 50 g/ha (fall panicum)?
Its pest or weed control at 50 g/ha is 95%.

And the “Foliar treatment herbicidal activity, Cocklebur” value (cocklebur [2])?
Its value is 100.

What about the “Soil treatment herbicidal activity, barnyard grass” value (barnyard grass [3]) of the same molecule?
Its value is 0.

And the “Soil treatment herbicidal activity, Crabgrass” value (crabgrass)?
Its value is 0.

And the “Soil treatment herbicidal activity, Indian jointvetch” value (indian jointvetch)?
Its value is 0.

What about the “Soil treatment herbicidal activity, Cocklebur” value (cocklebur [4]) of the same molecule?
Its value is 0.

And the “Soil treatment herbicidal activity, Bindweed” value (bindweed)?
The value was 0.

And the “Soil treatment phytotoxicity, Corn” value (corn; [5])?
The value was 0.

And the “Soil treatment phytotoxicity, Corn” value (corn; [6])?
The value was 0.

And the “Soil treatment phytotoxicity, Corn” value (corn; [7])?
Its value is 1.

And the “Soil treatment phytotoxicity, Corn” value (corn; [8])?
Its value is 0.

And the “Soil treatment phytotoxicity, Cotton” value (cotton; [9])?
The value was 0.

And the “Soil treatment phytotoxicity, Cotton” value (cotton; [10])?
The value was 0.

What about the “Soil treatment phytotoxicity, Cotton” value (cotton; [11]) of the same molecule?
The value was 0.

And the “Soil treatment phytotoxicity, Cotton” value (cotton; [12])?
Its value is 1.

And the “Soil treatment phytotoxicity, Rice” value (rice; [13])?
The value was 0.

And the “Soil treatment phytotoxicity, Rice” value (rice; [14])?
The value was 0.

What about the “Soil treatment phytotoxicity, Rice” value (rice; [15]) of the same molecule?
The value was 0.

What about the “Soil treatment phytotoxicity, Rice” value (rice; [16]) of the same molecule?
Its value is 0.

What about the “Soil treatment phytotoxicity, Soybean” value (soybean; [18]) of the same molecule?
The value was 1.

What about the “Soil treatment phytotoxicity, Soybean” value (soybean; [19]) of the same molecule?
Its value is 0.

What about the “Soil treatment phytotoxicity, Wheat” value (wheat; [20]) of the same molecule?
Its value is 0.

And the “Soil treatment phytotoxicity, Wheat” value (wheat; [21])?
Its value is 0.

What about the “Soil treatment phytotoxicity, Wheat” value (wheat; [22]) of the same molecule?
The value was 0.

What about the “Soil treatment phytotoxicity, Wheat” value (wheat; [23]) of the same molecule?
Its value is 0.

For `Cn1nnc(COCc2nc(C(F)(F)F)ccc2C(=O)N(c2nnnn2C)S(C)(=O)=O)n1` [Compound No. 2-69, N-(1-methyl-1H-tetrazol-5-yl)-2-(((2-methyl-2H-tetrazol-5-yl)methoxy)methyl)-N-(methylsulfonyl)-6-(trifluoromethyl)nicotinamide], which pest or weed control at 50 g/ha (barnyard grass [1]) is on record?
The pest or weed control at 50 g/ha was 70%.

And the “Foliar treatment herbicidal activity, quack grass” value (quack grass)?
The value was 0.

And the pest or weed control at 50 g/ha (fall panicum)?
Its pest or weed control at 50 g/ha is 60%.

What about the pest or weed control at 50 g/ha (cocklebur [2]) of the same molecule?
The pest or weed control at 50 g/ha was 95%.

What about the pest or weed control at 50 g/ha (barnyard grass [3]; Echinochloa crus-galli) of the same molecule?
Its pest or weed control at 50 g/ha is 100%.

What about the pest or weed control at 50 g/ha (crabgrass) of the same molecule?
Its pest or weed control at 50 g/ha is 98%.

And the “Soil treatment herbicidal activity, Indian jointvetch” value (indian jointvetch)?
Its value is 100.

And the “Soil treatment herbicidal activity, Cocklebur” value (cocklebur [4])?
The value was 0.

And the pest or weed control at 50 g/ha (bindweed)?
Its pest or weed control at 50 g/ha is 70%.

And the “Soil treatment phytotoxicity, Corn” value (corn; [5])?
The value was 0.

And the “Soil treatment phytotoxicity, Corn” value (corn; [6])?
The value was 0.

What about the “Soil treatment phytotoxicity, Cotton” value (cotton; [9]) of the same molecule?
Its value is 1.

And the “Soil treatment phytotoxicity, Cotton” value (cotton; [10])?
Its value is 5.

What about the “Soil treatment phytotoxicity, Rice” value (rice; [13]) of the same molecule?
The value was 7.

What about the “Soil treatment phytotoxicity, Rice” value (rice; [14]) of the same molecule?
The value was 8.

And the “Soil treatment phytotoxicity, Soybean” value (soybean; [17])?
The value was 0.

And the “Soil treatment phytotoxicity, Soybean” value (soybean; [18])?
Its value is 0.

What about the “Soil treatment phytotoxicity, Wheat” value (wheat; [20]) of the same molecule?
The value was 0.

What about the “Soil treatment phytotoxicity, Wheat” value (wheat; [21]) of the same molecule?
The value was 1.
